{
  "source": "patent US11980592B2",
  "about": "“Cannabinoid-containing complex mixtures for the treatment of neurodegenerative diseases” (GBS GLOBAL BIOPHARMA, INC., priority 2016, dated 2024)",
  "test_system": "Cath.a cells",
  "experiment": "TRPV1-induced calcium-mediated cell death (Trypan Blue positivity)",
  "format": "cell-based",
  "protocol": "We therefore studied susceptibility of HEK wild type cells, TRPV1 overexpressing HEK cells, and Cath.a cells to TRPV1-induced calcium-mediated cell death.\nCells were plated into tissue culture dishes and treated with either vehicle (HEK wild type and Cath.a) or tetracycline (1 micromolar) for 16 h to induce TRPV1 expression (HEK-TRPV1) at 37° C. in a […] atmosphere. After washing, media were replaced with a modified sodium Ringer solution containing 3% FBS and either 10 millimolar CaCl2 or zero added CaCl2 and 1 millimolar EGTA. […] After 2 minutes, aliquots of 7 microliters of cell suspension were counted in a hemocytometer and field of at least 200 cells were scored for Trypan Blue positive or negative status.",
  "data": [
    {"smiles": "COc1cc(CNC(=O)CCCC/C=C/C(C)C)ccc1O", "note": "[capsaicin]", "values": [
      {"measurement": "cell death (trypan blue positivity) in Cath.a cells", "setting": "10 mM external CaCl2, 80 min after stimulation with 250 nM capsaicin", "value": "can induce cell death"},
      {"measurement": "cell death (percent trypan blue positive cells) in Cath.a cells in the absence of external calcium", "setting": "no external calcium, 80 min after stimulation with 250 nM capsaicin", "value": "dependent upon the presence of external calcium"}
    ]}
  ]
}
